# Experimental data reported in US6737383B1, “Herbicidal oxadiazolidines” (priority 1999, dated 2004).
# Experiments:
# bedstraw = experiment: Test B pre/postemergence bedstraw; format: in vivo, Galium aparine
# How it was run: (§1)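 Test chemicals in a non-phytotoxic solvent mixture with surfactant were sprayed preemergence onto planted seeds and postemergence onto plants 2 to 18 cm tall (1- to 4-leaf stage). After twelve to sixteen days in a greenhouse, injury was visually rated against untreated controls from 0 (no effect) to 10 (complete control).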
# blackgrass = experiment: Test B pre/postemergence blackgrass; format: in vivo, Alopecurus myosuroides
# How it was run: as §1
# surinam grass = experiment: Test B pre/postemergence surinam grass; format: in vivo, Brachiaria decumbens
# How it was run: as §1
# cocklebur = experiment: Test B pre/postemergence cocklebur; format: in vivo, Xanthium strumarium; settings: for Cocklebur plant response rating: scale of 0 to 10 where 0 is no effect and 10 is complete control
# How it was run: as §1
# corn = experiment: Test B pre/postemergence corn; format: in vivo, Zea mays; settings: for Corn plant response rating: scale of 0 to 10 where 0 is no effect and 10 is complete control
# How it was run: as §1
# morningglory = experiment: Test B pre/postemergence morningglory; format: in vivo, Ipomoea hederacea; settings: for Morningglory plant response rating: scale of 0 to 10 where 0 is no effect and 10 is complete control
# How it was run: as §1
# pigweed = experiment: Test B pre/postemergence pigweed; format: in vivo, Amaranthus retroflexus; settings: for Redroot pigweed plant response rating: scale of 0 to 10 where 0 is no effect and 10 is complete control
# How it was run: as §1
# rape = experiment: Test B pre/postemergence rape; format: in vivo, Brassica napus; settings: for Rape plant response rating: scale of 0 to 10 where 0 is no effect and 10 is complete control
# How it was run: as §1
# soybean = experiment: Test B pre/postemergence soybean; format: in vivo, Glycine max; settings: for Soybean plant response rating: scale of 0 to 10 where 0 is no effect and 10 is complete control
# How it was run: as §1
# sugar beet = experiment: Test B pre/postemergence sugar beet; format: in vivo, Beta vulgaris; settings: for Sugarbeets plant response rating: scale of 0 to 10 where 0 is no effect and 10 is complete control
# How it was run: as §1
# velvetleaf = experiment: Test B pre/postemergence velvetleaf; format: in vivo, Abutilon theophrasti; settings: for Velvetleaf plant response rating: scale of 0 to 10 where 0 is no effect and 10 is complete control
# How it was run: as §1
# wild oat = experiment: Test B pre/postemergence wild oat; format: in vivo, Avena fatua; settings: for Wild oats plant response rating: scale of 0 to 10 where 0 is no effect and 10 is complete control
# How it was run: as §1
# purple nutsedge = experiment: Test B pre/postemergence purple nutsedge; format: in vivo, Cyperus rotundus; settings: for Nutsedge plant response rating: scale of 0 to 10 where 0 is no effect and 10 is complete control
# How it was run: as §1
# rice = experiment: Test B flood test rice; format: in vivo, Oryza sativa; settings: Pre-emergence
# How it was run: (§2)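 Read-out is a visual response score from 0 (no effect) to 10 (complete control), assigned by comparison with untreated controls. Treatment was applied at the 2-leaf stage, and plants stayed in the greenhouse for twelve to sixteen days before scoring.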
# smallflower flatsedge = experiment: Test B flood test smallflower flatsedge; format: in vivo, Cyperus difformis; settings: Pre-emergence
# How it was run: as §2
# bamyardgrass = experiment: Test B flood test barnyardgrass; format: in vivo, Echinochloa crus-galli; settings: Pre-emergence
# How it was run: as §2
# [1] = Postemergence, Rate 125 g/ha, scale 0 to 10, 0 is no effect, 10 is complete control
# [2] = Preemergence, Rate 62 g/ha, scale 0 to 10 (0 no effect, 10 complete control)
# [3] = Preemergence, Rate 500 g/ha, scale of 0 to 10 where 0 is no effect and 10 is complete control
# [4] = Rate 62 g/ha, Postemergence, scale of 0 to 10 where 0 is no effect and 10 is complete control
# [5] = Rate 250 g/ha, Postemergence, scale of 0 to 10 where 0 is no effect and 10 is complete control
# [6] = Rate 500 g/ha, Postemergence, scale 0 to 10, 0 no effect, 10 complete control
# [7] = Preemergence, Rate 250 g/ha, scale of 0 to 10 where 0 is no effect and 10 is complete control
# [8] = Rate 62 g/ha, flood test species, visual evaluation after twelve to sixteen days
# [9] = Rate 125 g/ha, flood test species, scale 0 to 10 where 0 is no effect and 10 is complete control
# [10] = Rate 250 g/ha, flood-test species, scale 0 to 10, 0 is no effect, 10 is complete control
# [11] = Rate 500 g/ha, flood test species, scale 0 to 10 (0 no effect, 10 complete control)
structure (smiles),measurement,setting,value
CC(C)N(C(=O)n1oc(=O)n(C2CCCCCC2)c1=O)c1ccccc1 [Compound 341],"Plant response rating, Bedstraw",bedstraw; [1],0
same,"Plant response rating, Bedstraw",bedstraw; [2],0
same,Bedstraw plant response rating (0 to 10 scale),"bedstraw; Preemergence, Rate 125 g/ha",0
same,Bedstraw plant response rating,bedstraw; [3],2
same,Bedstraw plant response rating,bedstraw; [4],0
same,"Plant response rating, Bedstraw",bedstraw; [5],4
same,"Plant response rating, Bedstraw",bedstraw; [6],8
same,"Plant response rating, Blackgrass",blackgrass; [1],0
same,"Plant response rating, Blackgrass",blackgrass; [2],0
same,Blackgrass plant response rating (0 to 10 scale),"blackgrass; Preemergence, Rate 125 g/ha",2
same,Blackgrass plant response rating,blackgrass; [7],6
same,Blackgrass plant response rating,blackgrass; [3],7
same,Blackgrass plant response rating,blackgrass; [4],0
same,"Plant response rating, Blackgrass",blackgrass; [5],2
same,"Plant response rating, Blackgrass",blackgrass; [6],2
same,"Plant response rating, B. signalgrass",surinam grass; [1],0
same,"Plant response rating, B. signalgrass",surinam grass; [2],0
same,"B. signalgrass plant response rating (0 to 10 scale, 0 is no effect, 10 is complete control)","surinam grass; Preemergence, Rate 125 g/ha",0
same,B. signalgrass plant response rating,surinam grass; [7],0
same,B. signalgrass plant response rating,surinam grass; [3],0
same,B. signalgrass plant response rating,surinam grass; [4],0
same,"Plant response rating, B. signalgrass",surinam grass; [5],0
same,"Plant response rating, B. signalgrass",surinam grass; [6],2
same,"Plant response rating, Cocklebur",cocklebur; [1],0
same,"Plant response rating, Cocklebur",cocklebur; [2],0
same,Cocklebur plant response rating (0 to 10 scale),"cocklebur; Preemergence, Rate 125 g/ha",0
same,Cocklebur plant response rating,"cocklebur; Preemergence, Rate 250 g/ha",0
same,Cocklebur plant response rating,"cocklebur; Preemergence, Rate 500 g/ha",0
same,Cocklebur plant response rating,"cocklebur; Rate 62 g/ha, Postemergence",0
same,"Plant response rating, Corn",corn; [1],0
same,"Plant response rating, Corn",corn; [2],0
same,Corn plant response rating (0 to 10 scale),"corn; Preemergence, Rate 125 g/ha",0
same,Corn plant response rating,"corn; Preemergence, Rate 250 g/ha",0
same,Corn plant response rating,"corn; Preemergence, Rate 500 g/ha",0
same,Corn plant response rating,"corn; Rate 62 g/ha, Postemergence",0
same,"Plant response rating, Corn",corn; [6],0
same,"Plant response rating, Morningglory",morningglory; [1],7
same,"Plant response rating, Morningglory",morningglory; [2],0
same,Morningglory plant response rating (0 to 10 scale),"morningglory; Preemergence, Rate 125 g/ha",0
same,Morningglory plant response rating,"morningglory; Preemergence, Rate 250 g/ha",0
same,Morningglory plant response rating,"morningglory; Preemergence, Rate 500 g/ha",0
same,Morningglory plant response rating,"morningglory; Rate 62 g/ha, Postemergence",7
same,"Plant response rating, Morningglory",morningglory; [6],10
same,"Plant response rating, Redroot pigweed",pigweed; [1],0
same,"Plant response rating, Redroot pigweed",pigweed; [2],0
same,Redroot pigweed plant response rating (0 to 10 scale),"pigweed; Preemergence, Rate 125 g/ha",0
same,Redroot pigweed plant response rating,"pigweed; Preemergence, Rate 250 g/ha",0
same,Redroot pigweed plant response rating,"pigweed; Preemergence, Rate 500 g/ha",8
same,Redroot pigweed plant response rating,"pigweed; Rate 62 g/ha, Postemergence",0
same,"Plant response rating, Redroot pigweed",pigweed; [6],6
same,"Plant response rating, Rape",rape; [1],0
same,"Plant response rating, Rape",rape; [2],0
same,Rape plant response rating (0 to 10 scale),"rape; Preemergence, Rate 125 g/ha",0
same,Rape plant response rating,"rape; Preemergence, Rate 250 g/ha",0
same,Rape plant response rating,"rape; Preemergence, Rate 500 g/ha",0
same,Rape plant response rating,"rape; Rate 62 g/ha, Postemergence",0
same,"Plant response rating, Rape",rape; [6],2
same,"Plant response rating, Soybean",soybean; [1],2
same,"Plant response rating, Soybean",soybean; [2],0
same,Soybean plant response rating (0 to 10 scale),"soybean; Preemergence, Rate 125 g/ha",0
same,Soybean plant response rating,"soybean; Preemergence, Rate 250 g/ha",0
same,Soybean plant response rating,"soybean; Preemergence, Rate 500 g/ha",0
same,Soybean plant response rating,"soybean; Rate 62 g/ha, Postemergence",1
same,"Plant response rating, Soybean",soybean; [6],3
same,"Plant response rating, Sugarbeets",sugar beet; [1],0
same,"Plant response rating, Sugarbeets",sugar beet; [2],0
same,Sugarbeets plant response rating (0 to 10 scale),"sugar beet; Preemergence, Rate 125 g/ha",0
same,Sugarbeets plant response rating,"sugar beet; Preemergence, Rate 250 g/ha",0
same,Sugarbeets plant response rating,"sugar beet; Preemergence, Rate 500 g/ha",0
same,Sugarbeets plant response rating,"sugar beet; Rate 62 g/ha, Postemergence",0
same,"Plant response rating, Sugarbeets",sugar beet; [6],0
same,"Plant response rating, Velvetleaf",velvetleaf; [1],0
same,"Plant response rating, Velvetleaf",velvetleaf; [2],0
same,Velvetleaf plant response rating (0 to 10 scale),"velvetleaf; Preemergence, Rate 125 g/ha",0
same,Velvetleaf plant response rating,"velvetleaf; Preemergence, Rate 250 g/ha",0
same,Velvetleaf plant response rating,"velvetleaf; Preemergence, Rate 500 g/ha",2
same,Velvetleaf plant response rating,"velvetleaf; Rate 62 g/ha, Postemergence",0
same,"Plant response rating, Velvetleaf",velvetleaf; [6],2
same,"Plant response rating, Wild oats",wild oat; [1],0
same,"Plant response rating, Wild oats",wild oat; [2],0
same,Wild oats plant response rating (0 to 10 scale),"wild oat; Preemergence, Rate 125 g/ha",0
same,Wild oats plant response rating,"wild oat; Preemergence, Rate 250 g/ha",0
same,Wild oats plant response rating,"wild oat; Preemergence, Rate 500 g/ha",2
same,Wild oats plant response rating,"wild oat; Rate 62 g/ha, Postemergence",0
same,"Plant response rating, Wild oats",wild oat; [6],3
same,"Plant response rating, Nutsedge",purple nutsedge; [1],0
same,"Plant response rating, Nutsedge",purple nutsedge; [2],0
same,Nutsedge plant response rating (0 to 10 scale),"purple nutsedge; Preemergence, Rate 125 g/ha",0
same,Nutsedge plant response rating,"purple nutsedge; Preemergence, Rate 250 g/ha",0
same,Nutsedge plant response rating,"purple nutsedge; Preemergence, Rate 500 g/ha",0
same,Nutsedge plant response rating,"purple nutsedge; Rate 62 g/ha, Postemergence",0
same,"Plant response rating, Nutsedge",purple nutsedge; [6],0
same,"Plant response rating, Rice (0 to 10 scale, 0 is no effect, 10 is complete control)",rice; [8],0
same,Rice plant response rating,rice; [9],0
same,Rice plant response rating,rice; [10],0
same,Rice plant response rating,rice; [11],2
same,"Plant response rating, S. Flatsedge (0 to 10 scale, 0 is no effect, 10 is complete control)",smallflower flatsedge; [8],1
same,S. Flatsedge plant response rating,smallflower flatsedge; [9],4
same,S. Flatsedge plant response rating,smallflower flatsedge; [10],9
same,S. Flatsedge plant response rating,smallflower flatsedge; [11],9
same,"Plant response rating, Barnyardgrass (0 to 10 scale, 0 is no effect, 10 is complete control)",bamyardgrass; [8],2
same,Barnyardgrass plant response rating,bamyardgrass; [9],8
same,Barnyardgrass plant response rating,bamyardgrass; [10],9
same,Barnyardgrass plant response rating,bamyardgrass; [11],9
